Columns and labels:
[1] = test system: native geph; assay: µSPOT peptide microarray binding assay with native geph from mouse brain lysate
[2] = test system: gephE; assay: µSPOT peptide microarray binding assay with recombinant gephE
[3] = test system: FL-geph; assay: µSPOT peptide microarray binding assay with full-length geph
[4] = µSPOT peptide microarray, GlyRβ full positional scan, native geph from mouse brain lysate, intensity normalised to wild-type sequence DLRSNDFSIVGSLPR (=1)
[5] = µSPOT peptide microarray, GlyRβ full positional scan, recombinant gephE, intensity normalised to wild-type sequence DLRSNDFSIVGSLPR (=1)
[6] = µSPOT peptide microarray, GlyRβ full positional scan, intensity normalised to wild-type sequence DLRSNDFSIVGSLPR (=1)
[7] = µSPOT full positional scan of GlyRβ 15-mer DLRSNDFSIVGSLPR, native geph, intensity normalised to wild-type sequence (= 1)
[8] = µSPOT full positional scan of GlyRβ 15-mer DLRSNDFSIVGSLPR, intensity normalised to wild-type sequence (= 1)

Native geph Binding Intensity [norm.] [1, 4] [norm.]	gephE Binding Intensity [norm.] [2, 5] [norm.]	Fl-geph Binding Intensity [norm.] [3, 6] [norm.]	Native geph Binding Intensity [norm.] [1, 7] [norm.]	gephE Binding Intensity [norm.] [2, 8] [norm.]	Fl-geph Binding Intensity [norm.] [3, 8] [norm.]	Sequence
0.15	0.22	0.16				DLRSNDFSIVDSLPR [GlyRβ_Full_Positional_Scan_210, GlyR β 414-428 variant G424D]
0.14	0.23	0.18				DLRSNDFSIVESLPR [GlyRβ_Full_Positional_Scan_211, GlyR β 414-428 variant G424E]
0.22	0.43	0.54				DLRSNDFSIVFSLPR [GlyRβ_Full_Positional_Scan_207, GlyR β 414-428 variant G424F]
			0.99	0.77	1.04	DLRSNDFSIVGALPR [GlyRβ_Full_Positional_Scan_221]
			0.48	0.63	0.83	DLRSNDFSIVGCLPR [GlyRβ_Full_Positional_Scan_237]
			0.45	0.52	0.77	DLRSNDFSIVGDLPR [GlyRβ_Full_Positional_Scan_230]
			0.49	0.64	0.84	DLRSNDFSIVGELPR [GlyRβ_Full_Positional_Scan_231]
			0.37	0.64	0.88	DLRSNDFSIVGFLPR [GlyRβ_Full_Positional_Scan_227]
			0.86	0.75	0.99	DLRSNDFSIVGGLPR [GlyRβ_Full_Positional_Scan_222]
			0.9	0.8	1.01	DLRSNDFSIVGHLPR [GlyRβ_Full_Positional_Scan_233]
			0.45	0.62	1.05	DLRSNDFSIVGILPR [GlyRβ_Full_Positional_Scan_223]
			0.47	0.81	0.96	DLRSNDFSIVGKLPR [GlyRβ_Full_Positional_Scan_234]
			0.44	0.62	1.01	DLRSNDFSIVGLLPR [GlyRβ_Full_Positional_Scan_224]
			0.89	0.77	0.88	DLRSNDFSIVGMLPR [GlyRβ_Full_Positional_Scan_238]
			1.16	0.74	1.17	DLRSNDFSIVGNLPR [GlyRβ_Full_Positional_Scan_239]
			0.25	0.51	0.7	DLRSNDFSIVGPLPR [GlyRβ_Full_Positional_Scan_225]
			1.4	0.84	1.12	DLRSNDFSIVGQLPR [GlyRβ_Full_Positional_Scan_240]
			0.8	0.87	1.06	DLRSNDFSIVGRLPR [GlyRβ_Full_Positional_Scan_232]
			1	0.9	1.07	DLRSNDFSIVGSAPR [GlyRβ_Full_Positional_Scan_241]
			0.88	0.85	0.87	DLRSNDFSIVGSCPR [GlyRβ_Full_Positional_Scan_257]
			0.61	0.72	1.05	DLRSNDFSIVGSDPR [GlyRβ_Full_Positional_Scan_250]
			0.67	0.8	1.11	DLRSNDFSIVGSEPR [GlyRβ_Full_Positional_Scan_251]
			0.96	0.9	1.16	DLRSNDFSIVGSFPR [GlyRβ_Full_Positional_Scan_247]

Native geph Binding Intensity [norm.] [1, 4] [norm.]	gephE Binding Intensity [norm.] [2, 5] [norm.]	Fl-geph Binding Intensity [norm.] [3, 6] [norm.]	Native geph Binding Intensity [norm.] [1, 7] [norm.]	gephE Binding Intensity [norm.] [2, 8] [norm.]	Fl-geph Binding Intensity [norm.] [3, 8] [norm.]	Sequence
			0.66	0.69	0.91	DLRSNDFSIVGSGPR [GlyRβ_Full_Positional_Scan_242]
			1.16	1.08	1.02	DLRSNDFSIVGSHPR [GlyRβ_Full_Positional_Scan_253]
			0.93	0.94	1	DLRSNDFSIVGSIPR [GlyRβ_Full_Positional_Scan_243]
			0.24	0.59	0.68	DLRSNDFSIVGSKPR [GlyRβ_Full_Positional_Scan_254]
			0.63	0.67	0.99	DLRSNDFSIVGSLAR [GlyRβ_Full_Positional_Scan_261]
			0.36	0.62	0.67	DLRSNDFSIVGSLCR [GlyRβ_Full_Positional_Scan_277]
			0.4	0.58	0.82	DLRSNDFSIVGSLDR [GlyRβ_Full_Positional_Scan_270]
			0.28	0.32	0.75	DLRSNDFSIVGSLER [GlyRβ_Full_Positional_Scan_271]
			0.28	0.71	0.78	DLRSNDFSIVGSLFR [GlyRβ_Full_Positional_Scan_267]
			0.44	0.6	0.82	DLRSNDFSIVGSLGR [GlyRβ_Full_Positional_Scan_262]
			0.55	0.62	1.08	DLRSNDFSIVGSLHR [GlyRβ_Full_Positional_Scan_273]
			0.49	0.65	0.95	DLRSNDFSIVGSLIR [GlyRβ_Full_Positional_Scan_263]
			0.21	0.58	1.01	DLRSNDFSIVGSLKR [GlyRβ_Full_Positional_Scan_274]
			0.32	0.66	0.74	DLRSNDFSIVGSLLR [GlyRβ_Full_Positional_Scan_264]
			0.44	0.6	0.77	DLRSNDFSIVGSLMR [GlyRβ_Full_Positional_Scan_278]
			0.67	0.71	0.77	DLRSNDFSIVGSLNR [GlyRβ_Full_Positional_Scan_279]
			0.81	0.87	0.9	DLRSNDFSIVGSLPA [GlyRβ_Full_Positional_Scan_281]
			0.97	0.83	1.04	DLRSNDFSIVGSLPC [GlyRβ_Full_Positional_Scan_297]
			0.66	0.96	1.21	DLRSNDFSIVGSLPD [GlyRβ_Full_Positional_Scan_290]
			0.49	0.82	0.84	DLRSNDFSIVGSLPE [GlyRβ_Full_Positional_Scan_291]
			0.79	1.01	0.64	DLRSNDFSIVGSLPF [GlyRβ_Full_Positional_Scan_287]
			0.84	0.88	0.92	DLRSNDFSIVGSLPG [GlyRβ_Full_Positional_Scan_282]
			0.92	0.96	1.05	DLRSNDFSIVGSLPH [GlyRβ_Full_Positional_Scan_293]

Reference: publication PMC7753147, “High-throughput determination of protein affinities using unmodified peptide libraries in nanomolar scale” (iScience, 2020)
